# Assay results reported in US20160281050A1, “METHODS FOR TREATING A CULTURE OF HAEMATOCOCCUS PLUVIALIS FOR CONTAMINATION USING SALT AND HYDROGEN PEROXIDE” (HELIAE DEVELOPMENT LLC, priority 2015, published 2016).
# Where two headings read alike, the source gives them in different places.
# Experiments:
# [1] = tested on: chytrids; experiment: % chytrid infection in flask cultures (Example 6); assay type: cell-based; details: #2440 samples, 1 ppt salt, 0.0075 mL/L 2-3 times per day
# Procedure: A series of experiments were conducted to evaluate the effectiveness of hydrogen peroxide alone and in combination with concentrations of salt as a treatment for controlling chytrid infections in Haematococcus pluvialis cultures. […] Bioreactor #2420 had just been inoculated with cells in the green swimmer stage into reddening conditions that comprised of culture medium comprising a 1 ppt concentration of sodium chloride (NaCl). The flask experiment consisted of duplicate untreated controls and duplicate treatments.
# The flask cultures contained Haematococcus pluvialis (Strain 1) cells in both the green swimmer stage and early red cyst stage.
# The collected samples were inoculated in the green swimmer stage in growth conditions [i.e., in the absence of sodium chloride (NaCl)].
# The culture samples were inoculated in the green swimmer stage in growth conditions [i.e., in less than 1 ppt of sodium chloride (NaCl)].
# The flask cultures were then diluted 1:3 into reddening media comprising 1 ppt NaCl or 2 ppt NaCl (33.3 mL and 66.6 mL culture media).
# [2] = tested on: Haematococcus pluvialis (Strain 1) green swimmer cells
# Excerpt: Haematococcus pluvialis cultures containing green swimmer cells in open raceway pond bioreactors [identification numbers (#) 2210 and 2220] disposed in a greenhouse, using paddlewheel mixing, and operating in conditions: reactor volume of 16,000 L; Daily photosynthetically active radiation (PAR) of 57 mol m^−2 d^−1; pH of 7.5; and paddlewheel speed of 40%; were inoculated on the same day and cultured in growth conditions.
# The culture of bioreactor #2330 was transferred to open raceway pond bioreactor #2420 disposed in a greenhouse, using paddlewheel mixing, and operating in conditions: reactor volume of 140,000 L; Daily PAR of 58 mol m^−2 d^−1; pH of 7.3; and paddlewheel speed of 70%); but the culture was not treated after the transfer. […] Bacteria including Pseudomonas, Flectobacillus, and Cytophaga were present in the bacterial community in both the bioreactors #2330 and #2420.
# [3] = tested on: Haematococcus pluvialis (Strain 2); experiment: % lysis and culture dry weight in flasks (Example 10);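 also: flask cultures run in duplicate, with duplicate untreated flasks serving as controls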
# Excerpt: Culture samples of Haematococcus pluvialis (Strain 2) were collected on the second day of the culture from open raceway bioreactor #2430 operating in conditions: reactor volume of 170,000 L; Daily PAR not measured; pH of 7.3; and paddlewheel speed of 70. The culture samples were distributed into flasks for culturing, consisting of duplicate untreated controls and duplicate treatments. […] Samples were taken from the flask cultures daily to quantify % lysis and % chytrid infection and cell dry weight was quantified every other day for a duration of 11 days.
# [4] = tested on: Haematococcus pluvialis (Strain 1) green swimmer cells; experiment: Commercial scale cultures: lysis, carotenoid content (UV), average growth rate (Example 5); details: for Maximum % Lysis of Culture: 0.007 mL/L every six hours
# Excerpt: The findings from the flask test samples were then applied to commercial scale cultures of Haematococcus pluvialis (Strain 1) containing green swimmer cells that were transferred from open raceway pond bioreactor #2310 disposed in a greenhouse, using paddlewheel mixing, and operating in conditions: reactor volume of 55,000 L; Daily PAR of 42 mol m^−2 d^−1; pH of 7.5; and paddlewheel speed of 40%; to open raceway pond bioreactor #2420 disposed in a greenhouse, using paddlewheel mixing, operating in conditions: reactor volume of 140,000 L; Daily PAR of 40 mol m^−2 d^−1; pH of 7.3; and paddlewheel speed of 70%. Similarly, the culture in bioreactor #2320, operating in conditions: reactor volume of 60,000 L; Daily PAR of 42 mol m^−2 d^−1; pH of 7.5; and paddlewheel speed of 40%; was transferred by being split into pond bioreactors #2410 and 2430 operating in conditions: reactor volume of 150,000 L; Daily PAR of 40 mol m^−2 d^−1; pH of 7.3; and paddlewheel speed of 70%. […] Lysis was quantified upon harvest of the culture through visual observation of samples under a microscope. Carotenoid content of the cells was measured by UV method upon harvest, and the average growth rate of the culture was calculated based on periodic dry weight samples. The results were compared to data from previous culture runs in the same bioreactors or bioreactors with similar operating conditions during the same month (September 2014) at the same location.
# [5] = bioreactor #2220, 0.0075 mL/L every 24 hours
substance,measurement,setting,value
hydrogen peroxide [H2O2],Average Chytrid Infection,[1]; 24 h,1.7 ± 2.9%
same,Average Chytrid Infection,[1]; 96 h,25.0 ± 2.9%
same,Average Chytrid Infection,[1]; 120 h,51.7 ± 5.0%
same,Average Chytrid Infection,[1]; 144 h,43.9 ± 4.2%
same,duration of high motility compared with untreated culture #2210,[2]; [5],one day longer
same,motility retained,[2]; [5],95%
same,time of chytrid detection compared with untreated culture #2310,"[2]; bioreactor #2320, 0.0075 mL/L every 24 hours",three days later
same,onset of high amounts of cell lysis,"[2]; bioreactor #2320, treated culture",not until five days after the treatment ended
same,decrease of motility,"[2]; bioreactor #2330, 0.0075 mL/L, after the first treatment",about 30%
same,lysis,"[2]; bioreactor #2330, 0.0075 mL/L, after the second treatment",60%
same,"Chytrid sporangia present, time after hydrogen peroxide treatment ended","[2]; bioreactors #2330/#2420, end of the culture period",7 days
same,Chytrid sporangia in the culture,"[2]; bioreactors #2330/#2430, 0.0075 mL/L once before and twice after transfer",not detected
same,time high amounts of cell lysis remained high,"[2]; bioreactors #2330/#2430, treatment began after lysis had occurred",4 days
same,% Lysis,"[3]; 0.0105 mL/L 1 time per day for 3 d then every other day, day 0",0.8 ± 2.0%
same,% Lysis,"[3]; 0.0105 mL/L 1 time per day for 3 d then every other day, day 3",0.0 ± 0.0%
same,% Lysis,"[3]; 0.0105 mL/L 1 time per day for 3 d then every other day, day 4",1.7 ± 0.0%
same,% Lysis,"[3]; 0.0105 mL/L 1 time per day for 3 d then every other day, day 5",1.7 ± 2.4%
same,% Lysis,"[3]; 0.0105 mL/L 1 time per day for 3 d then every other day, day 6",3.3 ± 4.7%
same,% Lysis,"[3]; 0.0105 mL/L 1 time per day for 3 d then every other day, day 7",0.0 ± 0.0%
same,% Lysis,"[3]; 0.0105 mL/L 1 time per day for 3 d then every other day, day 8",0.8 ± 1.2%
same,% Lysis,"[3]; 0.0105 mL/L 1 time per day for 3 d then every other day, day 9",0.8 ± 1.2%
same,% Lysis,"[3]; 0.0105 mL/L 1 time per day for 3 d then every other day, day 10",0.8 ± 1.2%
same,% Lysis,"[3]; 0.0105 mL/L 1 time per day, day 0",0.8 ± 2.0%
same,% Lysis,"[3]; 0.0105 mL/L 1 time per day, day 3",0.0 ± 0.0%
same,% Lysis,"[3]; 0.0105 mL/L 1 time per day, day 4",1.7 ± 0.0%
same,% Lysis,"[3]; 0.0105 mL/L 1 time per day, day 5",1.7 ± 0.0%
same,% Lysis,"[3]; 0.0105 mL/L 1 time per day, day 6",0.8 ± 2.0%
same,% Lysis,"[3]; 0.0105 mL/L 1 time per day, day 7",0.0 ± 0.0%
same,% Lysis,"[3]; 0.0105 mL/L 1 time per day, day 8",1.7 ± 2.4%
same,% Lysis,"[3]; 0.0105 mL/L 1 time per day, day 9",7.5 ± 8.3%
same,% Lysis,"[3]; 0.0105 mL/L 1 time per day, day 10",0.0 ± 0.0%
same,percent lysis,"[3]; 0.0105 mL/L, for 11 days",under 10%
same,% Lysis,"[3]; 0.0140 mL/L 1 time per day for 3 d then every other day, day 0",0.8 ± 2.0%
same,% Lysis,"[3]; 0.0140 mL/L 1 time per day for 3 d then every other day, day 3",4.2 ± 1.2%
same,% Lysis,"[3]; 0.0140 mL/L 1 time per day for 3 d then every other day, day 4",10.0 ± 8.7%
same,% Lysis,"[3]; 0.0140 mL/L 1 time per day for 3 d then every other day, day 5",15.8 ± 5.9%
same,% Lysis,"[3]; 0.0140 mL/L 1 time per day for 3 d then every other day, day 6",6.7 ± 0.0%
same,% Lysis,"[3]; 0.0140 mL/L 1 time per day for 3 d then every other day, day 7",13.3 ± 4.7%
same,% Lysis,"[3]; 0.0140 mL/L 1 time per day for 3 d then every other day, day 8",13.3 ± 2.4%
same,% Lysis,"[3]; 0.0140 mL/L 1 time per day for 3 d then every other day, day 9",5.0 ± 2.4%
same,% Lysis,"[3]; 0.0140 mL/L 1 time per day for 3 d then every other day, day 10",15.8 ± 12.9%
same,% Lysis,"[3]; 0.0140 mL/L 1 time per day, day 0",0.8 ± 2.0%
same,% Lysis,"[3]; 0.0140 mL/L 1 time per day, day 3",4.2 ± 1.2%
same,% Lysis,"[3]; 0.0140 mL/L 1 time per day, day 4",10.0 ± 8.7%
same,% Lysis,"[3]; 0.0140 mL/L 1 time per day, day 5",10.0 ± 2.4%
same,% Lysis,"[3]; 0.0140 mL/L 1 time per day, day 6",9.2 ± 3.5%
same,% Lysis,"[3]; 0.0140 mL/L 1 time per day, day 7",20.0 ± 9.4%
same,% Lysis,"[3]; 0.0140 mL/L 1 time per day, day 8",6.7 ± 7.0%
same,% Lysis,"[3]; 0.0140 mL/L 1 time per day, day 9",21.7 ± 7.1%
same,% Lysis,"[3]; 0.0140 mL/L 1 time per day, day 10",9.2 ± 3.5%
same,percent lysis reached,"[3]; 0.0140 mL/L, by day 7",20%
same,% Lysis,"[3]; 0.0175 mL/L 1 time per day for 2 d then every other, day 0",0.8 ± 2.0%
same,% Lysis,"[3]; 0.0175 mL/L 1 time per day for 2 d then every other, day 3",31.7 ± 11.8%
same,% Lysis,"[3]; 0.0175 mL/L 1 time per day for 2 d then every other, day 4",22.2 ± 8.5%
same,% Lysis,"[3]; 0.0175 mL/L 1 time per day for 2 d then every other, day 5",19.2 ± 17.6%
same,% Lysis,"[3]; 0.0175 mL/L 1 time per day for 2 d then every other, day 6",25 ± 0.0%
same,percent lysis reached,"[3]; 0.0175 mL/L, by day 3 after only being dosed twice",30%
same,Maximum % Lysis of Culture,[4]; Bioreactor 2410,70%
same,Maximum % Lysis of Culture,[4]; Bioreactor 2420,20%
same,Maximum % Lysis of Culture,[4]; Bioreactor 2430,35%
same,reduction of the level of cell lysis,"[4]; at least 0.007 mL/L every 6 hours, flask tests and commercial scale cultures together",at least 60%
same,lysis,[4]; two of the commercial scale cultures treated with hydrogen peroxide,20-35%
